In US7371766B2, “Curcumin analogs with anti-tumor and anti-angiogenic properties” (Emory University, priority 1999, dated 2008):

Legend:
M14 = conditions: read-out: Median Growth Inhibitory Concentration (GI50); M14, Melanoma; 48 hours
SK-MEL-2 = conditions: read-out: Median Growth Inhibitory Concentration (GI50); SK-MEL-2, Melanoma; 48 hours
NCI/ADR-RES = conditions: read-out: Median Growth Inhibitory Concentration (GI50), Breast Cancer, 48 hours
OVCAR-4 = conditions: read-out: Median Growth Inhibitory Concentration (GI50); OVCAR-4, Ovarian Cancer; 48 hours
SW-620 = conditions: read-out: Median Growth Inhibitory Concentration (GI50); SW-620, Colon Cancer; 48 hours
A498 = conditions: read-out: Median Growth Inhibitory Concentration (GI50); A498, Renal Cancer; 48 hours
U251 = conditions: read-out: Median Growth Inhibitory Concentration (GI50); U251, CNS Cancer; 48 hours
NCI-H460 = conditions: read-out: Median Growth Inhibitory Concentration (GI50); NCI-H460, Non-Small Cell Lung Cancer; 48 hours
EKVX = conditions: read-out: Median Growth Inhibitory Concentration (GI50), Non-Small Cell Lung Cancer, 48 hours
MDA-MB-231 = conditions: read-out: Median Growth Inhibitory Concentration (GI50); MDA-MB-231, Breast Cancer; 48 hours
OVCAR-5 = conditions: read-out: Median Growth Inhibitory Concentration (GI50); OVCAR-5, Ovarian Cancer; 48 hours
LOX IMVI = conditions: read-out: Median Growth Inhibitory Concentration (GI50), Melanoma, 48 hours
K-562 = conditions: read-out: Median Growth Inhibitory Concentration (GI50); K-562, Leukemia; 48 hours
SNB-19 = conditions: read-out: Median Growth Inhibitory Concentration (GI50); SNB-19, CNS Cancer; 48 hours
HT29 = conditions: read-out: Median Growth Inhibitory Concentration (GI50); HT29, Colon Cancer; 48 hours
DU-145 = conditions: read-out: Median Growth Inhibitory Concentration (GI50); DU-145, Prostate Cancer; 48 hours
HCC-2998 = conditions: read-out: Median Growth Inhibitory Concentration (GI50); HCC-2998, Colon Cancer; 48 hours
HOP-92 = conditions: read-out: Median Growth Inhibitory Concentration (GI50); HOP-92, Non-Small Cell Lung Cancer; 48 hours
SF-295 = conditions: read-out: Median Growth Inhibitory Concentration (GI50); SF-295, CNS Cancer; 48 hours
A549 = conditions: read-out: Median Growth Inhibitory Concentration (GI50); A549, Non-Small Cell Lung Cancer; 48 hours
UACC-257 = conditions: read-out: Median Growth Inhibitory Concentration (GI50); UACC-257, Melanoma; 48 hours
UACC-62 = conditions: read-out: Median Growth Inhibitory Concentration (GI50); UACC-62, Melanoma; 48 hours
HL-60 (TB) = conditions: read-out: Median Growth Inhibitory Concentration (GI50), Leukemia, 48 hours
PC-3 = conditions: read-out: Median Growth Inhibitory Concentration (GI50); PC-3, Prostate Cancer; 48 hours
NCI-H522 = conditions: read-out: Median Growth Inhibitory Concentration (GI50); NCI-H522, Non-Small Cell Lung Cancer; 48 hours
MALME-3M = conditions: read-out: Median Growth Inhibitory Concentration (GI50), Melanoma, 48 hours
MCF-7 = conditions: read-out: Median Growth Inhibitory Concentration (GI50); MCF-7, Breast Cancer; 48 hours
IGROV1 = conditions: read-out: Median Growth Inhibitory Concentration (GI50); IGROV1, Ovarian Cancer; 48 hours
TK-10 = conditions: read-out: Median Growth Inhibitory Concentration (GI50); TK-10, Renal Cancer; 48 hours
T-47D = conditions: read-out: Median Growth Inhibitory Concentration (GI50), Breast Cancer, 48 hours
NCI-H23 = conditions: read-out: Median Growth Inhibitory Concentration (GI50); NCI-H23, Non-Small Cell Lung Cancer; 48 hours
HS 578T = conditions: read-out: Median Growth Inhibitory Concentration (GI50), Breast Cancer, 48 hours

| Compound | GI50 (M14) [µM] | GI50 (SK-MEL-2) [µM] | GI50 (NCI/ADR-RES) [µM] | GI50 (OVCAR-4) [µM] | GI50 (SW-620) [µM] | GI50 (A498) [µM] | GI50 (U251) [µM] | GI50 (NCI-H460) [µM] | GI50 (EKVX) [µM] | GI50 (MDA-MB-231) [µM] | GI50 (OVCAR-5) [µM] | GI50 (LOX IMVI) [µM] | GI50 (K-562) [µM] | GI50 (SNB-19) [µM] | GI50 (HT29) [µM] | GI50 (DU-145) [µM] | GI50 (HCC-2998) [µM] | GI50 (HOP-92) [µM] | GI50 (SF-295) [µM] | GI50 (A549) [µM] | also measured |
| --- | --- | --- | --- | --- | --- | --- | --- | --- | --- | --- | --- | --- | --- | --- | --- | --- | --- | --- | --- | --- | --- |
| 3,5-Bis(2-hydroxybenzylidene)-sulfone [EF11] | 33.9 | 24 | 86.1 | 28.7 | 32.5 | 34.2 | 35.7 | 30.7 | 30.6 | 25.6 | 89.2 | 40.3 | 27.4 | 48 | 45.9 | 29.9 | 20.5 | 23.5 | 53.8 | 38.7 | GI50 (UACC-257): 29.8 µM; GI50 (UACC-62): 21.3 µM; GI50 (HL-60 (TB)): 21.3 µM; GI50 (PC-3): 34.9 µM; GI50 (NCI-H522): 33.3 µM; GI50 (MALME-3M): 40.7 µM; GI50 (MCF-7): 28.7 µM; GI50 (IGROV1): 35.9 µM; GI50 (TK-10): 41.2 µM; GI50 (T-47D): 24.7 µM; GI50 (NCI-H23): 35.8 µM; GI50 (HS 578T): 52.1 µM |
| N.N.[Cl][Pt][Cl] [Cisplatin, reference compound] | 0.3 | 1.3 | 0.8 | 0.3 | 0.8 | 2 | 0.4 | 0.1 | 1.6 | 3.2 | 1.3 | 0.3 | 1 | 1 | 1.3 | 0.4 | 0.1 | 0.6 | 0.3 | 0.8 | GI50 (UACC-257): 1 µM; GI50 (UACC-62): 0.3 µM; GI50 (HL-60 (TB)): 0.1 µM; GI50 (PC-3): 1.6 µM; GI50 (NCI-H522): 0.8 µM; GI50 (MALME-3M): 0.2 µM; GI50 (MCF-7): 0.4 µM; GI50 (IGROV1): 0.6 µM; GI50 (TK-10): 1.3 µM; GI50 (T-47D): 2 µM; GI50 (NCI-H23): 0.1 µM; GI50 (HS 578T): 1.3 µM |
